Experimental data taken from patent US20050085644A1, “Novel 3-aryl-2,5-dihydroxy-1,4-benzoquinone derivatives, their preparation method and pharmaceutical compositions containing same” (priority 2002, published 2005).

Experiments:
[1] = target: T1, human insulin receptors (Homo sapiens, UniProt P06213); experiment: Activation (phosphorylation) of insulin receptors in CHO-HIR cells, immunoblotting; type: cell-based; conditions: 2 h, 10^−5M, two hours at 37° C., read-out: activation percentage for insulin receptors (phosphorylation in relation to 50 nM insulin fixed at 100%)
T1 construct: expressed in transfected cells; host or cells: CHO-HIR (hamster ovary cells)
T1 sequence (P06213 28-758 limits assumed): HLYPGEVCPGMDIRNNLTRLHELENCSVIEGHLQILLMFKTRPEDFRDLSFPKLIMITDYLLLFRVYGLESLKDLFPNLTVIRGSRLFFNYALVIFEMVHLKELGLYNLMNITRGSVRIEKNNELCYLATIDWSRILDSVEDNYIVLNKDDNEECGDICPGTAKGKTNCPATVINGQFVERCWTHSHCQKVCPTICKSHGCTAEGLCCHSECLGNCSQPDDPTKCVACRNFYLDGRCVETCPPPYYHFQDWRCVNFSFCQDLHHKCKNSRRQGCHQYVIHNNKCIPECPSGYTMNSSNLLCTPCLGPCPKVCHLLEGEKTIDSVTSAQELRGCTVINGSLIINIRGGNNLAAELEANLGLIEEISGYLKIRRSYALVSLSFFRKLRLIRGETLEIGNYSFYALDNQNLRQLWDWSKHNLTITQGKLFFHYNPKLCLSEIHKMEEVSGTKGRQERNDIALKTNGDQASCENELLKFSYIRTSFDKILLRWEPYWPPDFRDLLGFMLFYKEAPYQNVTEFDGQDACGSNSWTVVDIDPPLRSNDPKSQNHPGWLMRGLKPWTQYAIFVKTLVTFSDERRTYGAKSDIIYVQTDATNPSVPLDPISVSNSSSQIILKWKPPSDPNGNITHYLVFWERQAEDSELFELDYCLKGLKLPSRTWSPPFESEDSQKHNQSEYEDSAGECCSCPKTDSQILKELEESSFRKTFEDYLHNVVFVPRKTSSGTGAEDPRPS
Protocol: (§1) The pharmacological effect of the compounds of the invention on cellular signaling is evaluated in vitro using hamster ovary cells transfected with human insulin receptors (CHO-HIR). The techniques employed are from TAVARE and DENTON (1988, BIOCHEM. J., 250, 509-519) and TAVARE et al. (1988, Biochem. J., 253, 783-788) modified by ISSAD et al. (1991, Biochem. J., 275, 15-21) and COMBETTES-SOUVERAIN et al. (1997, Diabetologia, 40, 533-540).
(§2) The products are studied at 10^−5M under incubation for two hours at 37° C. with CHO-HIR in culture. A negative control (solvent) and a positive control (insulin 50 nM, 5 min incubation) are used in parallel in the same test. […]
(§3) The phosphorylation of the insulin receptors (IR) and the phosphorylation of protein kinase B are evaluated by immunoblotting as follows.
The IR are extracted over wheatgerm lectin; the samples are then subjected to electrophoresis on 7.5% polyacrylamide gel and subjected to an electric transfer onto PDVF membrane in a semi-dry system. […] After dehydridisation and then rehydridisation with an anit-insulin receptor β subunit antibody (βsubunit, ref 06492, Upstate Biotechnology), the total IR quantity deposited on blot is evaluated by chemiluminescence and the phosphorylation rate of the receptors is related to the total receptor quantity deposited. […]

[2] = tested on: protein kinase B; experiment: Activation (phosphorylation) of protein kinase B in CHO-HIR cells, immunoblotting; type: cell-based, hamster; conditions: 10^−5M, two hours at 37° C.
Protocol: as §1, §2, §3
Similarly, the state of phosphorylation of protein kinase B following electrophoresis of the samples on 10% polyacrylamide gel is determined by chemiluminescence after immunoblotting with anti-phospho protein kinase B antibodies (phospho Akt(Ser473) antibody, ref 9271, Cell Signaling) and then related to the total protein kinase B quantity (AKT antibody, ref 9272, Cell signaling).
The phosphorylation induced by the compounds of the invention is expressed as a percentage in relation to 50 nM insulin, fixed at 100% activation.

[3] = tested on: ob/ob C57BL/6 mice; experiment: Chronic in vivo study in ob/ob mice; conditions: female ob/ob C57BL/6 mice, 9 days, 10 or 20 mg/kg po
Protocol: 11-week-old female ob/ob C57BL/6 mice randomly selected in terms of basal glycaemia from animals that have been fed are treated for 9 days with the test compound at 10 or 20 mg/kg po and compared with a control group receiving 1% HEC. Biological balance (glycaemia, insulinaemia, triglyceridaemia) is reached on the 10th day with the animals that have been fed, the final treatment having taken place the day before. The results are expressed as percentage variations in relation to D0 (glycaemia, body weight) compared with the control group.

activation at 10 µM [1] | melting point | Compound | activation percentage for protein kinase B (phosphorylation in relation to 50 nM insulin fixed at 100%) [2] | other results
87.7% | – | O=C1C(O)=C(c2ccccc2)C(=O)C(O)=C1/C=C/c1ccc(F)cc1 [Example 27, 2-[(E)-2-(4-Fluorophenyl)ethenyl]-3,6-dihydroxy-5-phenyl-1,4-benzoquinone] | 48.9% | –
134% | – | O=C1C(O)=C(c2cccc(Cl)c2)C(=O)C(O)=C1/C=C/c1ccccc1 [Example 30, 2-(3-Chlorophenyl)-3,6-dihydroxy-5-[(E)-2-phenylethenyl]-1,4-benzoquinone] | – | –
– | – | O=C1C(O)=C(c2ccc3ccccc3c2)C(=O)C(O)=C1c1ccc(Cl)cc1 [Example 16, 2-(4-Chlorophenyl)-3,6-dihydroxy-5-(2-naphthyl)-1,4-benzoquinone] | – | insulinaemia, variation compared with the controls ([3]; fed, 10th day): −84.2%; glycaemia, percentage variation in relation to D0 ([3]; fed, 10th day, controls +4.5%): −60.7%; body weight, percentage variation in relation to D0 ([3]; control group +4.9%): −26.9%
– | 259 to 260 °C | O=C1C(O)=C(c2ccccc2)C(=O)C(O)=C1/C=C/c1ccccc1 [Example 1, 2,5-Dihydroxy-3-phenyl-6-[(E)-2-phenylethenyl]-1,4-benzoquinone] | – | triglycerides, reduction compared with the control ([3]; fed, 10th day): −37.8%
– | 240 to 241 °C | O=C1C(O)=C(c2ccccc2)C(=O)C(O)=C1/C=C/c1ccc(Br)cc1 [Example 3, 2,5-Dihydroxy-3-phenyl-6-[(E)-2-(4-bromophenyl)-ethenyl]-1,4-benzoquinone] | – | –
– | – | C/C(=C\c1ccccc1)C1=C(O)C(=O)C(c2ccccc2)=C(O)C1=O [Example 10, 2,5-Dihydroxy-3-[(E)-1-methyl-2-phenylethenyl]-6-phenyl-1,4-benzoquinone] | 91% | –
